From publication PMC9529094, “Identification of natural cytochalasins as leads for neglected tropical diseases drug discovery” (PLoS ONE, 2022)

Legend:
physchem = type: physicochemical; conditions: pH 7.4, from LC retention time calibration; read-out: LogD 7.4 (Oct/buff)
Procedure: To analyse cytochalasin lipophilicity, a methodology based on the retention time of molecules in stationary phase was used in LC-MS/MS (liquid chromatography-tandem mass spectrometry) Prominence UFLC (Shimadzu Corporation, Kyoto, Japan) and an interface with an LCMS-8045 triple quadrupole mass spectrometer (Shimadzu Corporation, Kyoto, Japan) with an electrospray ionization source (ESI). The chromatogram was obtained using a Supelco Ascentis express RP amide HPLC column (5 cm x 2.1 mm, 2.7 μM). The mobile phases consisted of 5% methanol in 10 mM ammonium acetate pH 7.4 (A) and 100% methanol (B). The mobile phase was eluted in binary gradient mode, and the gradient was as follows: 0 min, 95% A; 0.3 mins. 100% A; 5.2 mins. 0% A; 5.6 mins. 0% A; 5.8 mins. 100% A; 7.0 mins. And 100% A. The run time was 7 minutes, and the sample injection volume was 5 μL. Test compounds were prepared at 1.0 mg/mL by adding the stock solution at (1:1) mobile phases A:B (internal standard at 200 nM), and the DMSO concentration was lower than 2%. […]. The retention time (in minutes) of each of the eight standards was plotted against their LogD values. The resulting equation for the calibration curve (y = mx + b) was used to calculate the LogD values for the cytochalasins.

in vitro [1] = type: in vitro ADME; conditions: PAMPA; donor pH 6.5, acceptor pH 7.4, 5 h, 37°C; read-out: PAMPA permeability Mean Pe
Procedure: A parallel artificial membrane permeability assay was performed in a 96-well precoated PAMPA plate system (Corning Gentest # 353015). The compound solutions were prepared by diluting the stock solutions (10 mM) in phosphate-buffered saline (PBS) pH 6.5 at a final concentration of 10 μM and then added to the donor portion of the plate (300 μl/well), while PBS pH 7.4 (200 μl/well) was added to the acceptor portion, and the DMSO concentration was lower than 1%. The two portions of the plate were then coupled, and the system was incubated for 5 h at 37°C. Samples of the initial donor solution (T0) were collected and stored at -20°C. At the end of the incubation, samples were collected from the donor and acceptor plates and then added to plates containing quench solution (10% water and 90% methanol:acetonitrile (50:50) + 50 nM tolbutamide). The T0 samples were treated similarly. The final concentrations of compounds in the donor, acceptor and T0 wells were quantified by LC-MS/MS (liquid chromatography-tandem mass spectrometry) Prominence UFLC (Shimadzu Corporation, Kyoto, Japan) and interfaced with an LCMS-8045 triple quadrupole mass spectrometer (Shimadzu Corporation, Kyoto, Japan) with an electrospray ionization source (ESI). The chromatogram for analysis was obtained on a Supelco Ascentis express C18 column (3 cm x 2.1 mm, 5 μM). The mobile phases consisted of water + 0.1% formic acid (A) and acetonitrile + 0.1% formic acid (B). The mobile phase was eluted in binary gradient mode, and the gradient was as follows: 0 min, 95% A; 0.05 mins. 95% A; 0.3 mins: 2% A; 0.7 mins: 2% A; 0.8 mins: 95% A; 1.15 mins 95% A; and 2.0 mins 95% A. The run time was 2 minutes, the sample injection volume was 10 μL, and the flow rate was 0.7 mL/min. The results were used to calculate an effective permeability (Pe) value.

in vitro [2] = type: cell-based; conditions: human; 72 h, resazurin; read-out: THP-1 CC50 (μM ± SD)
Procedure: THP-1 (human monocyte cell line) cells were cultivated in RPMI medium supplemented with 10% foetal calf serum (FCS) (Cultilab, Campinas, SP, BR) and 1% penicillin and streptomycin (pen/strep—Sigma-Aldrich) at 37°C under 5% CO2, and HFF-1 (human fibroblast) and HepG2 (hepatocytes) cells were cultivated in DMEM without phenol red (Cultilab) supplemented with 10% FBS (Sigma-Aldrich) and 1% pen/strep at 37°C under 5% CO2.
THP-1 cells were seeded at 2x10^4/well in 96-well culture plates in RPMI 1640 supplemented (10% FCS, 1% pen/strep) and incubated overnight (37°C, 5% CO2). The compounds were added in 2-fold serial dilutions (64–0.12 μM), and the plates were incubated as described before. Each compound concentration was evaluated in duplicate. All the plates included DOX (Sigma-Aldrich) as a positive control (10–0.01 μM) and untreated wells as a negative control (100% growth). After 72 h, 20 μL of resazurin (Sigma-Aldrich) was added, and the plates were incubated for 4 h. The absorbance was measured at 536 and 588 nm in an automated microplate reader SpectraMax Gemini, and the data were analysed using GraphPad Prism version 8.0 for CC50 value calculation. The percentage of nonviable cells was determined and compared to the negative control wells (100% growth).

T. cruzi = assay: Screening of natural product collection against T. cruzi (cell infection assay); type: cell-based; conditions: Trypanosoma cruzi; compound concentration of 50 μM
Procedure: A screening of a natural product collection was performed by using cell assays for infection with Trypanosoma cruzi and Leishmania infantum. The collection includes 320 compounds from the metabolic classes terpenes, alkaloids, peptides and amides that were isolated by plant species or endophytic fungi. For further evaluation in this study, cytochalasins A-D (CAS numbers: CytA: 14110-64-6, CytB: 14930-96-2, CytC: 22144-76-9, CytD: 22144-77-0) were obtained from Sigma-Aldrich (St. Louis, MO, USA). The purity of these compounds was ≥97%. The stock solution of the compounds was prepared in 100% DMSO (dimethyl sulfoxide—Sigma-Aldrich).

| SMILES | chromatographic logD (physchem) | Papp (in vitro [1]) [×10⁻⁶ cm/s] | CC50 (in vitro [2]) [µM] | inhibition at 50 µM (T. cruzi) [%] |
| --- | --- | --- | --- | --- |
| C=C1[C@@H](C)[C@H]2[C@H](Cc3ccccc3)NC(=O)[C@]23OC(=O)/C=C/C(=O)CCC[C@@H](C)C/C=C/[C@H]3[C@@H]1O [Cytochalasin A] | 3.907 ± 0.014 | 27.1 ± 2.37 | 17 ± 1.34 | 99.7 |
| C=C1[C@@H](C)[C@H]2[C@H](Cc3ccccc3)NC(=O)[C@]23OC(=O)/C=C/[C@H](O)CCC[C@@H](C)C/C=C/[C@H]3[C@@H]1O [Cytochalasin B] | 3.361 ± 0.008 | 15.8 ± 0.31 | 109 ± 2.4 | 79.4 |
| CC(=O)OC1C=CC(C)(O)C(=O)C(C)CC=CC2C(O)C(C)=C(C)C3C(Cc4ccccc4)NC(=O)C123 (stereo not shown) [Cytochalasin C] | 3.434 ± 0.003 | 14.8 ± 3.28 | 84.8 ± 6.84 | 72.8 |
| C=C1[C@@H](C)[C@H]2[C@H](Cc3ccccc3)NC(=O)[C@]23[C@H](OC(C)=O)/C=C/[C@@](C)(O)C(=O)[C@@H](C)C/C=C/[C@H]3[C@@H]1O [Cytochalasin D] | 3.043 ± 0.004 | 8.74 ± 0.64 | 122 ± 11.3 | 69.5 |
